The source of these data is patent US9857359B2, “Methods for determining drug efficacy using cereblon-associated proteins” (CELGENE CORPORATION, priority 2012, dated 2018).

One assay has as its system Ikaros. Description: Ikaros protein degradation in Jurkat cells. In kind it is cell-based. Here is the method:
Jurkat cells were transfected with wildtype full length Aiolos and different lysine mutated full length Aiolos DNA (Origene, 5 μg DNA/100 μL R buffer/2×10^6 cells/shot) using Neon Transfection System (Invitrogen, Grand Island, N.Y.) with program 1350 voltage+10 width+3 pulse. GFP control DNA (Lonza) was also transfected. Transfected cells were cultured in 24-well plate with 1 mL RPMI+10% FBS at 37° C. for 6 hrs and then treated with DMSO or drug for another 48 hrs, Drug treated cells were collected for measuring Aiolos and Ikaros protein expression by western blot with antibodies against Aiolos (Santa Cruz, Dallas, Tex.) and Ikaros (Millipore, Billerica, Mass.).

Another assay has as its system Aiolos. Description: Overexpressed flag-Aiolos-myc in AU565 cells, western blot. The format is cell-based. As to the method: In some experiments, cell lines were transfected with an Aiolos overexpression vector using Lipofectamine reagent in a batch method. Cells were seeded in a 12 well plate at 1×10^5 cells in a 3 mL volume per well. Where specified, cells were pretreated with MG132 at 10 uM for 1 hour, or DMSO was added as a control. Following the pretreatment, Compound A was added directly to the cell culture media at the specified concentration.
Cells were harvested and lysed in Pierce #89900 Ripa buffer containing 2× protease inhibitor cocktail from Pierce #78442. The lysate was applied to a QiaShredder to remove DNA. Total protein yield was measured using BioRad DC protein determination kit (Cat#500-0112). Lysates were stored at −80° C. until use. Samples were applied to BioRad Criterion PreCast gels, 10% (Bio-Rad#345-0010) and transferred to Bio-Rad Nitrocellulose/Filter Paper Sandwiches (#162-0233) for western blot analysis.

In a further assay the target is T1, Helios (Homo sapiens, UniProt Q9UKS7).
T1 construct: endogenous in cells; host or cells: normal human CD19+ B cells
T1 sequence (Q9UKS7 whole entry): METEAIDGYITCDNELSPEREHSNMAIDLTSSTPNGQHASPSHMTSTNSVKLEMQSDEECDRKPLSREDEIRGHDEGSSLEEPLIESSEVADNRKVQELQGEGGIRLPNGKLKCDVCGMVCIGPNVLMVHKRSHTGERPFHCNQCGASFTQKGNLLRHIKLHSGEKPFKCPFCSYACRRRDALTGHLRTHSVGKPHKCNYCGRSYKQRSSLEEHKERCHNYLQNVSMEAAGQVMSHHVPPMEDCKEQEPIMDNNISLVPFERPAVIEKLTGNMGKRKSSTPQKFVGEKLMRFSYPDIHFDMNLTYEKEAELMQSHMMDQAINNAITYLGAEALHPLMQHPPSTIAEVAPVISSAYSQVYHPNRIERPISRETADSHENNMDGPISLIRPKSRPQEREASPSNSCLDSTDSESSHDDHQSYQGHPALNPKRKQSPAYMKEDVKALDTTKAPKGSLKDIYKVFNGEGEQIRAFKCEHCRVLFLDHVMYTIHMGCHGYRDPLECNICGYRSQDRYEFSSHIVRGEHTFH
The assay can be described thus: SimpleWestern of normal human CD19+ B cells, Helios. In kind it is cell-based. The conditions noted are these: various concentrations. As to the method: Human B cells were isolated from 3 donors of whole bloods from the New Jersey Blood Center using B cell isolation kits from StemCell Technologies. IKZF family proteins were quantified using the automated capillary-based SimpleWestern System Sally (ProteinSimple). 100 ng of cell lysate protein or serial dilutions of recombinant proteins were mixed in reducing buffer with fluorescent Molecular Weight (MW) standards. After these samples were heated to 95° C. for 5 min, samples were loaded into each capillary tubes and proteins were separated based on MW sizes through stacking and separation matrices for 40 minutes at 250 Volts. Proteins were then immobilized to capillary walls using optimal photoactivated capture chemistry. Following protein immobilization, capillaries were incubated with a blocking reagent for 23 min and target proteins were probed with a specific primary antibody and horseradish peroxidase-conjugated anti-rabbit secondary antibody (ProteinSimple). A mixture of luminol and peroxide (ProteinSimple) was added, the resulting chemiluminescent signal was captured by a CCD camera, and the signal intensities were quantified and analyzed using Compass Software for Sally (ProteinSimple). The Ikaros family proteins in each sample were then calculated based on standard curve of human recombinant proteins. B-Actin was also used as an internal normalization control.

A further assay concerns Aiolos/IKZF3. Description: Cyno Monkey dose regimen study, Aiolos Western blotting of PBMC. The format is in vivo, Cynomolgus (M. fascicularis). To be noted: for Aiolos 42 kD / Aiolos 58 kD: in several monkeys. The text has this:
As depicted in FIG. 4, the study in Cynomolgus monkeys was divided in two phases: Phase I (7 days of oral doing with test article, Compound B hydrochloride) followed by 28 day test article free period and finally Phase II (28 days of oral dosing with test article). The objective of the Phase I of this study was to determine the onset and duration of pharmacodynamic effect of Compound B. The objective of the Phase II of this study was to explore the relationship the pharmacodynamic effects and safety/tolerability of Compound B. In addition, the toxicokinetic characteristics of Compound B were determined. Doses of Compound B tested were 0.75 mg/kg QD, every other day, or 4 days on, 3 days off. The test and control articles were administered to the appropriate animals by gavage from Days 1 to 7 for Phase I and from Days 1 to 28 in Phase II following dose regimens as described above. Phase I and Phase II were separated by at least a 28 day dose free session. The dose volume for each animal was based on the most recent body weight measurement. A naso/orogastric tube was inserted through a nostril (nasogastric) or through the mouth (orogastric) and advanced into the lower esophagus to the stomach. The animals were temporarily restrained (e.g., manually) for dose administration, and were not sedated. Disposable sterile syringes and naso/orogastric tubes were used for each animal/dose. Each dose were followed by a tap water flush of approximately 5 mL. The dosing formulations were stirred continuously during dose administration. Peripheral blood mononuclear cell subsets analyzed by flow cytometry were: CD45^+/CD3^+/CD20^+/CD16^+, CD45^+/CD20^+, CD45^+/CD3^+, CD45^+/CD3^+/CD4^+, CD45^+/CD3^+/CD8^+, CD45^+/CD3^−/CD16^+, CD45^+/CD3^−/CD14^+. Anti-KLH antibody titers were assayed by ELISA (FIG. 5). The protein levels of Aiolos/IKZF3 were measured in the peripheral blood mononuclear cells as follows. Cynomolgus (M. fascicularis) blood yielded approximately 10 million (10×10^6) mononuclear cells (PBMC) per 2.5 ml whole blood (according to protocol by Non Human Primate Reagent Source, Boston). After the cyno PBMC isolation, each sample was divided into two portions: 7×10^6 cells for protein analysis and 3×10^6 cells for mRNA analysis. All steps were done on ice, all centrifugation in a 4° C. refrigerated centrifuge. RIPA lysis buffer (Pierce, cat#89900) was prepared by adding 10 μL proteinase inhibitors (Pierce, cat#78443) to 1 mL of RIPA buffer. The PBMC was washed once in ice-cold phosphate buffered saline (PBS). Lysis buffer (use 0.25 mL RIPA lysis buffer per 7×10^6 PBMC) was added. The tube was placed on ice for 30 minutes, vortexed every 10 min. The lysate was frozen and store at −80° C. until analysis. The lysate was placed into a QIAshredder tube (QIAGEN, cat#79656) and spun down 30 sec at top speed (13200 rpm) in an Eppendorf benchtop centrifuge (Model 5415 R). […] The supernatant was collected without disturbing cell debris pellet (RIPA reagent enables the extraction of membrane, nuclear and cytoplasmic proteins that will remain in the supernatant). The protein lysate was frozen on dry ice and stored at −80° C. until analysis. The protein concentration was measured using BCA assay. The protein yield was expected to be 0.5-5 μg/μL, or 125-1250 μg total. ≧10 μg protein was loaded per lane for western for IKZF3/Aiolos using antibodies against the human proteins.

Another assay relates to NF-κB. The assay can be described thus: BCR-dependent NF-κB activation in DLBCL cells. In kind it is cell-based. The conditions noted are these: via IRF4 inhibition.

On to `Cc1nc2cccc(N)c2c(=O)n1C1CCC(=O)NC1=O` (stereo not drawn) [Compound A, 3-(5-amino-2-methyl-4-oxo-4H-quinazolin-3-yl)-piperidine-2,6-dione], for which, in the assay with Ikaros, the Ikaros protein degradation entry is “Ikaros degradation is Aiolos-independent”. The “Inhibition of Aiolos with proteasome inhibitor MG-132” value in the assay on Aiolos (MG132 pretreatment) is on record as “rescued by the addition of proteasome inhibitor MG-132”. The “Time at which reduction of overexpressed Aiolos begins to show” value in the assay with Aiolos (after the treatment) is “about 5 hours”.

Take `O=C1CC[C@H](N2Cc3c(OCc4ccc(CN5CCOCC5)cc4)cccc3C2=O)C(=O)N1` [Compound B, 3-(4-((4-(morpholinomethyl)benzyl)oxy)-1-oxoisoindolin-2-yl)piperidine-2,6-dione]: the Helios expression result on Helios is recorded as “without affecting Helios, Pegasus, or β-Actin”. Also, in the assay with Aiolos/IKZF3 (Cyno monkeys, all dosing regimens), the Aiolos expression entry is recorded as “generally inhibits the expression of Aiolos”. For the same compound, the “Aiolos 42 kD” value with Aiolos/IKZF3 (Group 2, QD dosing) is listed as “increased Aiolos 42 kD”; in the assay on Aiolos/IKZF3 (Group 3, Q2D dosing), “increased Aiolos 42 kD”; with Aiolos/IKZF3 (Group 4, 4 day/week dosing) it was “increased Aiolos 42 kD”. In addition, the “Aiolos 58 kD” value in the assay on Aiolos/IKZF3 (Group 2, QD dosing) is given as “reduced Aiolos 58 kD”; with Aiolos/IKZF3 (Group 3, Q2D dosing), “reduced Aiolos 58 kD”; in the assay with Aiolos/IKZF3 (Group 4, 4 day/week dosing), “reduced Aiolos 58 kD”.

On to `Nc1cccc2c1CN(C1CCC(=O)NC1=O)C2=O` (stereo not drawn) [lenalidomide], for which the “BCR-dependent NF-κB activation” value in the assay with NF-κB is listed as “caused downregulation of B cell receptor (BCR)-dependent NF-κB activation”.
